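Briefly, cells in 96-well plates were exposed to five compound concentrations for 48 h, and endpoints were estimated by linear interpolation. GI50 = concentration required for 50% inhibition of growth.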 Activity calls are given as the source filed them. No stated cut-off is given here; in the data, active = GI50 up to about 1.1 µM and inactive = higher.
Legend:
Test in all cases: NCI-60 cell line screen, 48 h
[1] = tested on: HCT-15
[2] = tested on: MDA-MB-435
[3] = tested on: K562
[4] = tested on: NCI-H23
[5] = tested on: OVCAR-3
[6] = tested on: A498
[7] = tested on: COLO 205
[8] = tested on: RXF 393
[9] = tested on: SN12C
[10] = tested on: OVCAR-5
[11] = tested on: PC-3
[12] = tested on: NCI-H460
[13] = tested on: A549
[14] = tested on: SK-MEL-28
[15] = tested on: SF-295
[16] = tested on: TK-10
[17] = tested on: OVCAR-8
[18] = tested on: UACC-62
[19] = tested on: HL-60
[20] = tested on: SR

## O=CCC1CCCCC1
[1]
  GI50: > 100 µM
[2]
  GI50: > 100 µM (inactive)
[3]
  GI50: > 100 µM (inactive)
[4]
  GI50: > 100 µM (inactive)
[5]
  GI50: > 100 µM (inactive)
[6]
  GI50: > 100 µM (inactive)
[7]
  GI50: > 100 µM (inactive)
[8]
  GI50: > 100 µM (inactive)
[9]
  GI50: > 100 µM (inactive)
[10]
  GI50: > 100 µM (inactive)
[11]
  GI50: > 100 µM (inactive)
[12]
  GI50: > 100 µM (inactive)
[13]
  GI50: > 100 µM (inactive)
[14]
  GI50: > 100 µM (inactive)
[15]
  GI50: > 100 µM (inactive)

## O=C(c1ccccc1F)c1c(NCc2ccccc2)c(=O)c1=O
[16]
  GI50: > 100 µM (inactive)
[1]
  GI50: > 100 µM
[2]
  GI50: > 100 µM (inactive)
[3]
  GI50: > 100 µM (inactive)
[17]
  GI50: > 100 µM (inactive)
[4]
  GI50: > 100 µM (inactive)
[5]
  GI50: > 100 µM (inactive)
[6]
  GI50: > 100 µM (inactive)
[7]
  GI50: > 100 µM (inactive)
[8]
  GI50: > 100 µM (inactive)
[9]
  GI50: > 100 µM (inactive)
[10]
  GI50: > 100 µM (inactive)
[11]
  GI50: > 100 µM (inactive)
[12]
  GI50: > 100 µM (inactive)
[13]
  GI50: > 100 µM (inactive)
[18]
  GI50: > 100 µM (inactive)
[14]
  GI50: > 100 µM (inactive)
[15]
  GI50: > 100 µM (inactive)
[19]
  GI50: > 100 µM (inactive)

## OC1=C2c3ccccc3NC2Oc2cc(F)ccc21 (stereo unspecified)
[16]
  GI50: 25.1 µM (inactive)
[1]
  GI50: 15.8 µM
[2]
  GI50: 17.1 µM (inactive)
[3]
  GI50: 15.6 µM (inactive)
[17]
  GI50: 27 µM (inactive)
[4]
  GI50: 12.9 µM (inactive)
[5]
  GI50: 11.9 µM (inactive)
[6]
  GI50: 15.3 µM (inactive)
[7]
  GI50: 14.5 µM (inactive)
[8]
  GI50: 16.6 µM (inactive)
[9]
  GI50: 12.7 µM (inactive)
[10]
  GI50: 17.9 µM (inactive)
[11]
  GI50: 18.8 µM (inactive)
[12]
  GI50: 18.5 µM (inactive)
[13]
  GI50: 19.5 µM (inactive)
[18]
  GI50: 15.7 µM (inactive)
[14]
  GI50: 30.1 µM (inactive)
[15]
  GI50: 14.7 µM (inactive)

## CO[C@@H]1C[C@H]2N3CC[C@@]2(c2cc4c(cc2C3)OCO4)[C@H]2O[C@@H]12
[16]
  GI50: > 100 µM (inactive)
[1]
  GI50: > 100 µM
[2]
  GI50: > 100 µM (inactive)
[3]
  GI50: > 100 µM (inactive)
[17]
  GI50: > 100 µM (inactive)
[4]
  GI50: > 100 µM (inactive)
[5]
  GI50: > 100 µM (inactive)
[6]
  GI50: > 100 µM (inactive)
[7]
  GI50: 0.851 µM (active)
[8]
  GI50: > 100 µM (inactive)
[9]
  GI50: > 100 µM (inactive)
[10]
  GI50: > 100 µM (inactive)
[11]
  GI50: > 100 µM (inactive)
[12]
  GI50: > 100 µM (inactive)
[13]
  GI50: > 100 µM (inactive)
[18]
  GI50: > 100 µM (inactive)
[14]
  GI50: > 100 µM (inactive)
[15]
  GI50: > 100 µM (inactive)
[19]
  GI50: > 100 µM (inactive)

## C[C@@H]1CCC[C@]2(C)O[C@H]2CC[C@@](C)(O)[C@@H]2CC3=C(CO)C(=O)O[C@H]3[C@H]1O2
[16]
  GI50: > 50 µM (inactive)
[1]
  GI50: > 50 µM
[2]
  GI50: > 50 µM (inactive)
[3]
  GI50: > 50 µM (inactive)
[17]
  GI50: > 50 µM (inactive)
[4]
  GI50: > 50 µM (inactive)
[5]
  GI50: > 50 µM (inactive)
[6]
  GI50: > 50 µM (inactive)
[7]
  GI50: > 50 µM (inactive)
[8]
  GI50: > 50 µM (inactive)
[9]
  GI50: > 50 µM (inactive)
[10]
  GI50: > 50 µM (inactive)
[11]
  GI50: > 50 µM (inactive)
[12]
  GI50: > 50 µM (inactive)
[13]
  GI50: > 50 µM (inactive)
[18]
  GI50: > 50 µM (inactive)
[14]
  GI50: > 50 µM (inactive)
[15]
  GI50: > 50 µM (inactive)
[19]
  GI50: > 5 µM (inactive)

## CC1=C(C2=C(C)C(=O)C(=O)c3cc(C)ccc32)c2ccc(C)cc2C(=O)C1=O
[16]
  GI50: 0.64 µM (active)
[1]
  GI50: 0.278 µM
[2]
  GI50: 0.201 µM (active)
[3]
  GI50: 0.185 µM (active)
[17]
  GI50: 0.245 µM (active)
[4]
  GI50: 0.208 µM (active)
[5]
  GI50: 0.153 µM (active)
[6]
  GI50: 1.59 µM (inactive)
[7]
  GI50: 0.269 µM (active)
[8]
  GI50: 0.234 µM (active)
[9]
  GI50: 0.197 µM (active)
[10]
  GI50: 0.199 µM (active)
[11]
  GI50: 0.298 µM (active)
[12]
  GI50: 0.243 µM (active)
[13]
  GI50: 1.7 µM (inactive)
[18]
  GI50: 0.191 µM (active)
[14]
  GI50: 0.185 µM (active)
[15]
  GI50: 0.194 µM (active)
[19]
  GI50: 0.0199 µM (active)

## CC1=C(C)C(=O)C(C2=C(C3=CC(=O)C(C)=C(C)C3=O)C(=O)C(C)=C(C)C2=O)=CC1=O
[16]
  GI50: 12 µM (inactive)
[1]
  GI50: 0.294 µM
[2]
  GI50: 3.52 µM (inactive)
[17]
  GI50: 4.41 µM (inactive)
[4]
  GI50: 14.7 µM (inactive)
[6]
  GI50: 14.3 µM (inactive)
[7]
  GI50: 2.89 µM (inactive)
[8]
  GI50: 1.83 µM (inactive)
[9]
  GI50: 13.9 µM (inactive)
[10]
  GI50: 7.85 µM (inactive)
[11]
  GI50: 4.62 µM (inactive)
[12]
  GI50: 14.9 µM (inactive)
[13]
  GI50: 30.3 µM (inactive)
[18]
  GI50: 10.5 µM (inactive)
[14]
  GI50: 6.87 µM (inactive)
[15]
  GI50: 17.7 µM (inactive)
[19]
  GI50: > 100 µM (inactive)

## Clc1ccc(Nc2nnc(CNc3ccc(-c4nnc(Nc5ccc(Cl)cc5)s4)cc3)s2)cc1
[16]
  GI50: 46.3 µM (inactive)
[1]
  GI50: 25.1 µM
[2]
  GI50: 28.1 µM (inactive)
[3]
  GI50: 7.71 µM (inactive)
[4]
  GI50: 39.3 µM (inactive)
[6]
  GI50: 28.9 µM (inactive)
[7]
  GI50: 20.2 µM (inactive)
[8]
  GI50: 35.8 µM (inactive)
[9]
  GI50: 47.8 µM (inactive)
[10]
  GI50: 23.6 µM (inactive)
[11]
  GI50: 15 µM (inactive)
[12]
  GI50: 15.2 µM (inactive)
[13]
  GI50: 16.1 µM (inactive)
[18]
  GI50: 21.2 µM (inactive)
[14]
  GI50: 33.3 µM (inactive)
[15]
  GI50: 24.9 µM (inactive)

## N#Cc1c(SCc2ccccc2)nc(-c2ccccc2)[nH]c1=S
[16]
  GI50: 32.7 µM (inactive)
[1]
  GI50: 19.8 µM
[2]
  GI50: 24 µM (inactive)
[3]
  GI50: 31.6 µM (inactive)
[17]
  GI50: 27.6 µM (inactive)
[4]
  GI50: 18.2 µM (inactive)
[5]
  GI50: 18.5 µM (inactive)
[6]
  GI50: 27.3 µM (inactive)
[7]
  GI50: 17.1 µM (inactive)
[8]
  GI50: 19.2 µM (inactive)
[9]
  GI50: 32.5 µM (inactive)
[10]
  GI50: 25.8 µM (inactive)
[11]
  GI50: 18.7 µM (inactive)
[12]
  GI50: 23.2 µM (inactive)
[13]
  GI50: 30.8 µM (inactive)
[18]
  GI50: 21.7 µM (inactive)
[14]
  GI50: 22.3 µM (inactive)
[15]
  GI50: 22.4 µM (inactive)
[19]
  GI50: 30.6 µM (inactive)

## CC(C)(C)OC(=O)NC(Cc1ccccc1)NC(=O)NC(=O)OCc1ccccc1 (stereo unspecified)
[16]
  GI50: 53.2 µM (inactive)
[1]
  GI50: > 100 µM
[2]
  GI50: > 100 µM (inactive)
[3]
  GI50: 74.5 µM (inactive)
[17]
  GI50: 55.5 µM (inactive)
[4]
  GI50: 87.9 µM (inactive)
[5]
  GI50: 42.2 µM (inactive)
[8]
  GI50: 22 µM (inactive)
[20]
  GI50: > 100 µM (inactive)
[9]
  GI50: > 100 µM (inactive)
[10]
  GI50: > 100 µM (inactive)
[11]
  GI50: 18.7 µM (inactive)
[12]
  GI50: 63.7 µM (inactive)
[13]
  GI50: 70.8 µM (inactive)
[18]
  GI50: 25.3 µM (inactive)
[14]
  GI50: 38.9 µM (inactive)
[15]
  GI50: 36.6 µM (inactive)

## Nc1nc(N)c(C2=CCN(Cc3ccccc3)CC2)c(=O)[nH]1
[1]
  GI50: > 100 µM
[2]
  GI50: > 100 µM (inactive)
[3]
  GI50: > 100 µM (inactive)
[17]
  GI50: > 100 µM (inactive)
[4]
  GI50: > 100 µM (inactive)
[5]
  GI50: > 100 µM (inactive)
[6]
  GI50: > 100 µM (inactive)
[7]
  GI50: > 100 µM (inactive)
[8]
  GI50: > 100 µM (inactive)
[9]
  GI50: > 100 µM (inactive)
[10]
  GI50: > 100 µM (inactive)
[11]
  GI50: > 100 µM (inactive)
[12]
  GI50: > 100 µM (inactive)
[13]
  GI50: > 100 µM (inactive)
[18]
  GI50: > 100 µM (inactive)
[14]
  GI50: > 100 µM (inactive)
[15]
  GI50: > 100 µM (inactive)
[19]
  GI50: > 100 µM (inactive)

From ChEMBL document CHEMBL1201862, “PubChem BioAssay data set” (2004)
